The target of the assay is Casein kinase II subunit alpha (Homo sapiens, UniProt P68400). Nature of the assay: Radiometric Kinase Assay.

The structures appear in SMILES notation.

Sequence of Casein kinase II subunit alpha (P68400 whole entry): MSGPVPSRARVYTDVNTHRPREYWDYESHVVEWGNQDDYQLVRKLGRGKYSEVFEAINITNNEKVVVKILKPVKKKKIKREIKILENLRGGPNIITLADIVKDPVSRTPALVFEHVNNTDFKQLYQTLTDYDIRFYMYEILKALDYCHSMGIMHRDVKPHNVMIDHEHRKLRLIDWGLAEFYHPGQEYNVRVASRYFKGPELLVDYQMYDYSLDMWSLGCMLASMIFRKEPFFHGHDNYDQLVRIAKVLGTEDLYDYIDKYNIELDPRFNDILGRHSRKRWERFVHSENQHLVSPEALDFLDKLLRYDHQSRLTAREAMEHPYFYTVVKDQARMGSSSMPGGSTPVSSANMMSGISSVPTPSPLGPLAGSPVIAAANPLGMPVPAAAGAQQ

As a reminder, the IC50 is the concentration that inhibits the measured activity by half. A lower IC50 goes with greater potency. Turning to `CC(C)COC(=O)c1[nH]c2ccc(F)cc2c1-c1cn(CC2CCN(CCNS(=O)(=O)c3ccc(-c4ccccc4C#N)cc3)CC2)nn1` [US20230278983, Code AB1076], the IC50 stood at 46 nM.

The values are drawn from BindingDB's records for patent US20230278983 (Universite Claude Bernard Lyon 1, 2023).
